One assay deals with 3T3-L1 cells. Put plainly: Immunoblotting of adipogenic proteins during differentiation. Conditions: differentiated in the presence of 1 μM AZD3965. Type of assay: cell-based, murine. On the procedure:
Differentiation Protocol: The 3T3-L1 differentiation protocol was adapted from Green and Meuth (1974) (Zebisch, K, et al. Anal. Biochem. 2012 425:88-90; Green, H, et al. Cell 1974 3:127-133). Cells were seeded at approximately 80% confluency and allowed to reach confluency prior to induction of differentiation. 1-2 days post confluency, growth media was changed to ‘day 0’ media consisting of media supplemented with 0.5 mM 1-methyl-3-isobutyl xanthine (IBMX), 1 µM dexamethasone, and 10 μg/mL insulin. On ‘day 3’ media was changed to growth media with 10 μg/mL insulin only, and on ‘day 6’ media was replaced with normal growth media. After day 6, the complete media was refreshed every 2 days. Using Oil Red O staining, RT-qPCR and immunoblotting, it was determined that 3T3-L1 cells were fully differentiated into lipid-laden adipocytes by ‘day 8’ of the protocol, as reported by others (Petersen, C, et al. Sci. Rep. 2017 7:13101; Mangum, L H, et al. Toxicol. Lett. 2015 238:65-71). All differentiation experiments were performed on cells between passage 4 and 6 to ensure differentiation efficiency was consistent.
Immunoblotting: For the collection of membrane bound proteins (i.e., MCT1), cells were lysed and the membrane fraction of protein was isolated as previously described (Sadler, J B A, et al. Preparation of a total membrane fraction from 3T3-L1 adipocytes (Cold Spring Harb. Protoc. 2016, 2016, pdb-prot083675). Briefly, cells were lysed with ice cold HES buffer (250 mM sucrose, 20 mM HEPES, 1 mM EDTA, pH7.4) containing a cocktail of protease and phosphatase inhibitors (Roche Diagnostic) and centrifuged for 5 min (500 g at 4° C.) to pellet out nuclei. The remaining supernatant (containing cytosolic and membrane bound proteins) was collected. […] For all samples, protein concentration of the lysates was measured using the BCA Protein Assay Kit (Pierce Biotechnologies). […] Bands were quantified using Image Studio™ (LI-COR Biosciences).

The subject of assay [1] is differentiated 3T3-L1 adipocytes. Put plainly: Ki67 expression (confocal microscopy and quantification). Type of assay: cell-based, murine. As to conditions: 1 μM, 24 hr, vs untreated adipocytes. As for the experimental part:
Confocal Microscopy: Cells were seeded and differentiated on 8 chamber μ-Slides (Ibidi®). Differentiated cells treated with vehicle (DMSO) or 1 μM AZD3965 for 24 hr were fixed in 4% PFA for 10 min at room temperature, permeabilized with 0.1% Triton™ X-100 in PBS and blocked with 3% BSA in PBS for an hr. Cells were subsequently incubated with Ki67 antibody (NBP2-22112, Novus Biologicals) at a 1:500 dilution in PBS 3% BSA overnight at 4° C. Cells were washed with PBS and incubated with goat anti-rabbit Alexa Fluor 647 secondary antibody (Invitrogen) at 1:2000 dilution in PBS 3% BSA for 1 hr. Lipid droplets were stained with BODIPY® (Invitrogen) for 20 min at room temperature according to the manufacturer's recommendations. Nuclei were stained for 20 min at room temperature with 4,6-diamidino-2-phenylindole (DAPI) (Sigma-Aldrich) in PBS 3% BSA, diluted at 1:5000 from a 1 mg/ml stock. Images were acquired on the Leica TCS SP8 laser scanning confocal microscope Leica Microsystems) at a magnification of 630× with 3× zoom. Ki67 Expression Quantification: Slides were prepared as outlined in ‘Confocal Microscopy’, After staining, Ki67 expression was imaged and analyzed on the Cytation 5 Cell Imaging Multi-Mode reader (BioTek Instruments) through the measure of fluorescence intensity and deep red fluorescent (Alexa647) positive pixels. […]

As for `Cc1[nH]nc(C(F)(F)F)c1Cc1sc2c(c1C(=O)N1C[C@](C)(O)CO1)c(=O)n(C)c(=O)n2C(C)C` [AZD3965, 5-[[(4S)-4-hydroxy-4-methyl-2-isoxazolidinyl]carbonyl]-3-methyl-1-(1-methylethyl)-6-[[5-methyl-3-(trifluoromethyl)-1H-pyrazol-4-yl]methyl]-thieno[2,3-d]pyrimidine-2,4 (1H, 3H)-dione], in the assay on 3T3-L1 cells, the “FABP4 protein expression during differentiation” value is listed as “significantly attenuated”, the “HSL protein expression during differentiation” value is “significantly attenuated” and the “PPARγ protein expression during differentiation” value is “significantly attenuated”. Besides, in assay [1], the “expression of Ki67” value is “significant increase”.
